According to PubChem BioAssay AID1963971 (Molecular Pharmacology Branch, DTP, NCI, 2024):
pIC50: −log10 of the molar value. Where “and” joins values, the source holds several entries; their conditions need not be identical. Identical values can stand only once.

Tested on: 953936-095-R-J2-PDC spheroids with HUVEC/MSC, viability
Test: Anticancer human tumor 953936-095-R-J2-PDC patient-derived cervical squamous cell carcinoma cell line growth inhibition [PI3K]
Settings: for viability, T/C: stronger effect = lower value; active = viability on the fitted dose curve at most 10% of control; inactive = the rest
In short: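 Tumor cells were combined with HUVEC and MSCs into spheroids, then dosed with PI3K-inhibitor combinations over half-log ranges capped near clinical Cmax or 10 microM.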

[1] = curve of first compound, second compound 0.00316 µM
[2] = curve of first compound, second compound 0.01 µM
[3] = curve of first compound, second compound 0.0316 µM
[4] = curve of first compound, second compound 0.1 µM
[5] = curve of first compound, second compound 0.316 µM
[6] = curve of first compound, second compound 1 µM
[7] = second compound 0.00316 µM, first compound 0.0316 µM
[8] = second compound 0.00316 µM, first compound 0.1 µM
[9] = second compound 0.01 µM, first compound 0.0316 µM
[10] = second compound 0.01 µM, first compound 0.1 µM
[11] = second compound 0.0316 µM, first compound 0.0316 µM
[12] = second compound 0.0316 µM, first compound 0.1 µM
[13] = second compound 0.0316 µM, first compound 0.316 µM
[14] = second compound 0.0316 µM, first compound 1 µM
[15] = second compound 0.0316 µM, first compound 3.16 µM
[16] = second compound 0.0316 µM, first compound 10 µM
[17] = second compound 0.1 µM, first compound 0.0316 µM
[18] = second compound 0.1 µM, first compound 0.1 µM
[19] = second compound 0.1 µM, first compound 0.316 µM
[20] = second compound 0.1 µM, first compound 1 µM
[21] = second compound 0.1 µM, first compound 3.16 µM
[22] = second compound 0.1 µM, first compound 10 µM
[23] = second compound 0.316 µM, first compound 0.0316 µM
[24] = second compound 0.316 µM, first compound 0.1 µM
[25] = second compound 0.316 µM, first compound 0.316 µM
[26] = second compound 0.316 µM, first compound 1 µM
[27] = second compound 0.316 µM, first compound 3.16 µM
[28] = second compound 0.316 µM, first compound 10 µM
[29] = second compound 1 µM, first compound 0.0316 µM
[30] = second compound 1 µM, first compound 0.1 µM
[31] = second compound 1 µM, first compound 0.316 µM
[32] = second compound 1 µM, first compound 1 µM
[33] = second compound 1 µM, first compound 3.16 µM
[34] = second compound 1 µM, first compound 10 µM
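Also: spheroids exposed to compounds for seven days before read-out.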

C#Cc1c(F)ccc2cc(O)cc(-c3ncc4c(N5CC6CCC(C5)N6)nc(OCC56CCCN5CC(F)C6)nc4c3F)c12 (configuration not stated)
inactive: viability, T/C (compound 0.0316 µM) 115% [middle of 4 runs] | viability, T/C (compound 0.1 µM) 97.5% [middle of 4 runs] | viability, T/C (compound 0.316 µM) 101% [middle of 4 runs] | viability, T/C (compound 1 µM) 92.4% [middle of 4 runs] | viability, T/C (compound 3.16 µM) 85.2% [middle of 4 runs] | viability, T/C (compound 10 µM) 81% [middle of 4 runs]
< 5.00: pIC50 (curve of compound)

C#Cc1c(F)ccc2cc(O)cc(-c3ncc4c(N5CC6CCC(C5)N6)nc(OCC56CCCN5CC(F)C6)nc4c3F)c12 (configuration not stated) + COc1c(OCCCN2CCOCC2)ccc2c3n(c(=NC(=O)c4cnc(N)nc4)nc12)CCN3
active: viability, T/C [21] 8.08% | viability, T/C [22] 6.07% | viability, T/C [23] 5.75% | viability, T/C [24] 4.83% | viability, T/C [25] 4.36% | viability, T/C [26] 3.39% | viability, T/C [27] 2.56% | viability, T/C [28] 1.89% | viability, T/C [29] 1.56% | viability, T/C [30] 1.33% | viability, T/C [31] 0.98% | viability, T/C [32] 1.02% | viability, T/C [33] 0.79% | viability, T/C [34] 0.41%
> 7.50: pIC50 [3] | pIC50 [4] | pIC50 [5] | pIC50 [6]
< 5.00: pIC50 [1]
inactive: viability, T/C [7] 81.9% | viability, T/C [8] 87.8% | viability, T/C (second compound 0.00316 µM, first compound 0.316 µM) 86.6% | viability, T/C (second compound 0.00316 µM, first compound 1 µM) 92.2% | viability, T/C (second compound 0.00316 µM, first compound 3.16 µM) 72% | viability, T/C (second compound 0.00316 µM, first compound 10 µM) 58.9% | viability, T/C [9] 75.5% | viability, T/C [10] 74.1% | viability, T/C (second compound 0.01 µM, first compound 0.316 µM) 69.1% | viability, T/C (second compound 0.01 µM, first compound 1 µM) 58.4% | viability, T/C (second compound 0.01 µM, first compound 3.16 µM) 54.3% | viability, T/C (second compound 0.01 µM, first compound 10 µM) 40% | viability, T/C [11] 40.1% | viability, T/C [12] 39.5% | viability, T/C [13] 38.7% | viability, T/C [14] 33.8% | viability, T/C [15] 25.7% | viability, T/C [16] 19.6% | viability, T/C [17] 18.3% | viability, T/C [18] 18.8% | viability, T/C [19] 14.1% | viability, T/C [20] 10.9%
5.41: pIC50 [2]

Cn1ncnc1[C@H]1c2n[nH]c(=O)c3cc(F)cc(c23)N[C@@H]1c1ccc(F)cc1
< 7.00: pIC50 (curve of compound)
inactive: viability, T/C (compound 0.000316 µM) 97.2% [middle of 4 runs] | viability, T/C (compound 0.001 µM) 101% [middle of 4 runs] | viability, T/C (compound 0.00316 µM) 103% [middle of 4 runs] | viability, T/C (compound 0.01 µM) 115% and 101% (2×) and 97.3% | viability, T/C (compound 0.0316 µM) 101% (2×) and 96.9% and 92.6% | viability, T/C (compound 0.1 µM) 94.8% [middle of 4 runs]

C[C@@H](NC(=O)c1ncnc(N)c1Cl)c1ncc(C(=O)Nc2cc(C(F)(F)F)c(Cl)cn2)s1 + CC(Nc1ncnc2nc[nH]c12)c1cc2cccc(Cl)c2c(=O)n1-c1ccccc1
< 5.00: pIC50 [3] | pIC50 [4] | pIC50 [5] | pIC50 [6] | pIC50 (curve of first compound, second compound 3.16 µM) | pIC50 (curve of first compound, second compound 10 µM)
inactive: viability, T/C [11] 103% | viability, T/C [12] 98.3% | viability, T/C [13] 101% | viability, T/C [14] 108% | viability, T/C [15] 101% | viability, T/C [16] 97.2% | viability, T/C [17] 113% | viability, T/C [18] 106% | viability, T/C [19] 106% | viability, T/C [20] 101% | viability, T/C [21] 117% | viability, T/C [22] 96.4% | viability, T/C [23] 107% | viability, T/C [24] 101% | viability, T/C [25] 94.3% | viability, T/C [26] 95.4% | viability, T/C [27] 103% | viability, T/C [28] 94.6% | viability, T/C [29] 96.5% | viability, T/C [30] 91.3% | viability, T/C [31] 91.8% | viability, T/C [32] 102% | viability, T/C [33] 94.8% | viability, T/C [34] 86.2% | viability, T/C (second compound 3.16 µM, first compound 0.0316 µM) 87.2% | viability, T/C (second compound 3.16 µM, first compound 0.1 µM) 79.5% | viability, T/C (second compound 3.16 µM, first compound 0.316 µM) 86.1% | viability, T/C (second compound 3.16 µM, first compound 1 µM) 94% | viability, T/C (second compound 3.16 µM, first compound 3.16 µM) 80.1% | viability, T/C (second compound 3.16 µM, first compound 10 µM) 79.8% | viability, T/C (second compound 10 µM, first compound 0.0316 µM) 60.9% | viability, T/C (second compound 10 µM, first compound 0.1 µM) 76.9% | viability, T/C (second compound 10 µM, first compound 0.316 µM) 63.1% | viability, T/C (second compound 10 µM, first compound 1 µM) 80.7% | viability, T/C (second compound 10 µM, first compound 3.16 µM) 61.7% | viability, T/C (second compound 10 µM, first compound 10 µM) 55.1%

CC(Nc1ccc2c(c1)OCCn1cc(N3C(=O)OCC3C(F)F)nc1-2)C(N)=O (configuration not stated)
inactive: viability, T/C (compound 0.00316 µM) 104% [middle of 8 runs] | viability, T/C (compound 0.01 µM) 92.8% [middle of 8 runs] | viability, T/C (compound 0.0316 µM) 75.9% [middle of 8 runs] | viability, T/C (compound 0.1 µM) 56.1% [middle of 8 runs] | viability, T/C (compound 0.316 µM) 36.3% [middle of 8 runs] | viability, T/C (compound 1 µM) 23.6% [middle of 8 runs]
140 nM [middle of 7 runs]: IC50 (compound alone, run of 06/12/2023)

Cn1ncnc1[C@H]1c2n[nH]c(=O)c3cc(F)cc(c23)N[C@@H]1c1ccc(F)cc1 + CC(Nc1ccc2c(c1)OCCn1cc(N3C(=O)OCC3C(F)F)nc1-2)C(N)=O
< 7.00: pIC50 [1] | pIC50 [2] | pIC50 [3] | pIC50 [4]
> 9.50: pIC50 [5] | pIC50 [6]
inactive: viability, T/C (second compound 0.00316 µM, first compound 0.000316 µM) 99.8% | viability, T/C (second compound 0.00316 µM, first compound 0.001 µM) 104% | viability, T/C (second compound 0.00316 µM, first compound 0.00316 µM) 105% | viability, T/C (second compound 0.00316 µM, first compound 0.01 µM) 100% | viability, T/C [7] 98.9% | viability, T/C [8] 91.7% | viability, T/C (second compound 0.01 µM, first compound 0.000316 µM) 103% | viability, T/C (second compound 0.01 µM, first compound 0.001 µM) 106% | viability, T/C (second compound 0.01 µM, first compound 0.00316 µM) 88.1% | viability, T/C (second compound 0.01 µM, first compound 0.01 µM) 94.2% | viability, T/C [9] 95% | viability, T/C [10] 86.2% | viability, T/C (second compound 0.0316 µM, first compound 0.000316 µM) 80% | viability, T/C (second compound 0.0316 µM, first compound 0.001 µM) 79% | viability, T/C (second compound 0.0316 µM, first compound 0.00316 µM) 77.5% | viability, T/C (second compound 0.0316 µM, first compound 0.01 µM) 79.9% | viability, T/C [11] 80.2% | viability, T/C [12] 74.2% | viability, T/C (second compound 0.1 µM, first compound 0.000316 µM) 58.8% | viability, T/C (second compound 0.1 µM, first compound 0.001 µM) 56% | viability, T/C (second compound 0.1 µM, first compound 0.00316 µM) 60.4% | viability, T/C (second compound 0.1 µM, first compound 0.01 µM) 57.9% | viability, T/C [17] 54.8% | viability, T/C [18] 50.8% | viability, T/C (second compound 0.316 µM, first compound 0.000316 µM) 34.3% | viability, T/C (second compound 0.316 µM, first compound 0.001 µM) 35.9% | viability, T/C (second compound 0.316 µM, first compound 0.00316 µM) 35.3% | viability, T/C (second compound 0.316 µM, first compound 0.01 µM) 33.9% | viability, T/C [23] 34% | viability, T/C [24] 33% | viability, T/C (second compound 1 µM, first compound 0.000316 µM) 23.3% | viability, T/C (second compound 1 µM, first compound 0.001 µM) 23.3% | viability, T/C (second compound 1 µM, first compound 0.00316 µM) 22.2% | viability, T/C (second compound 1 µM, first compound 0.01 µM) 23.7% | viability, T/C [29] 23% | viability, T/C [30] 24.4%
